Data on nine compounds can be found in patent publication US7709649B2, “Multi-substituted pyridyl sulfoximines and their use as insecticides” (Dow AgroSciences LLC, priority 2006, dated 2010).

The subject of series [1] is cotton aphid (Aphis gossypii). The series can be described thus: Insecticidal test for cotton aphid in foliar spray assay. It counts as in vivo. The following applies: for pest or weed control at 50 ppm / pest or weed control at 200 ppm: Aphis gossypii, 72 h, foliar spray on squash, 3 days, Corrected % Control (Abbott), Table 1; for pest or weed control at 50 ppm: read-out: CA 50: % control at 50 ppm against cotton aphid in foliar spray tests; for pest or weed control at 200 ppm: read-out: CA 200: % control at 200 ppm against cotton aphid in foliar spray tests; for CA 0.78: % Control at ppm against cotton aphid (foliar spray): 0.78 ppm; for CA 0.78: % Control at ppm against cotton aphid (foliar spray) / CA 3.13: % Control at ppm against cotton aphid (foliar spray) / CA 12.5: % Control at ppm against cotton aphid (foliar spray) / CA 50: % Control at ppm against cotton aphid (foliar spray): rundown assay, Table 2; for CA 3.13: % Control at ppm against cotton aphid (foliar spray): 3.13 ppm; for CA 12.5: % Control at ppm against cotton aphid (foliar spray): 12.5 ppm; for pest or weed control at 50 ppm / CA 50: % Control at ppm against cotton aphid (foliar spray): 50 ppm. As to the method: Insecticidal Test for Cotton Aphid (Aphis gossypii) in Foliar Spray Assay Squash with fully expanded cotyledon leaves were trimmed to one cotyledon per plant and infested with cotton aphid (wingless adult and nymph) 1 day prior to chemical application. Each plant was examined before chemical application to ensure proper infestation (ca. 30-70 aphids per plant). Compounds (2 mg) were dissolved in 2 ml of acetone:methanol (1:1) solvent, forming stock solutions of 1000 ppm. The stock solutions were diluted 5× with 0.025% Tween 20 in H2O to obtain the highest test solution at 200 ppm. Lower test concentrations (50, 12.5, 3.13 and 0.78 ppm) were prepared by making sequential 4× dilutions from the 200 ppm solution with a diluent consisting 80 parts of 0.025% Tween 20 in H2O and 20 parts of acetone:methanol (1:1). A hand-held Devilbiss sprayer was used to apply the spray solutions until runoff to both sides of the squash cotyledon leaves. Four plants (4 replications) were used for each concentration of each compound. Reference plants (solvent check) were sprayed with the diluent only. Treated plants were held in a holding room for 3 days at approximately 23° C. and 40% RH before the number of live aphids on each plant was recorded. Insecticidal activity was measured by Corrected % Control using Abbott's correction formula: Corrected % Control=100*(X−Y)/X where • X=No. of live aphids on solvent check plants • Y=No. of live aphids on treated plants Insecticidal Test for Green Peach Aphid (Myzus persicae) in Foliar Spray Assay

For series [2], the system named is green peach aphid (Myzus persicae). As to the kind of experiment: Insecticidal test for green peach aphid in foliar spray assay. The series is classed as in vivo. Also on record: key to GPA 200: % control at 200 ppm against green peach aphid in foliar spray tests / GPA 50: % control at 50 ppm against green peach aphid in foliar spray tests: A: 90-100; B: 80-89; C: 70-79; D: 60-69; E: 50-59; F: Less than 50; G: Inactive; H: Not tested. The following applies: foliar spray on cabbage seedlings, 3 days, Corrected % Control (Abbott); for pest or weed control at 50 ppm: Myzus persicae, 72 h, read-out: GPA 50: % control at 50 ppm against green peach aphid in foliar spray tests. As to the method: where • X=No. of live aphids on solvent check plants • Y=No. of live aphids on treated plants Insecticidal Test for Green Peach Aphid (Myzus persicae) in Foliar Spray Assay Cabbage seedlings grown in 3-inch pots, with 2-3 small (3-5 cm) true leaves, were used as test substrate. The seedlings were infested with 20-50 green peach aphids (wingless adult and nymph) 2-3 days prior to chemical application. Four seedlings were used for each treatment. Compounds (2 mg) were dissolved in 2 ml of acetone:methanol (1:1) solvent, forming stock solutions of 1000 ppm. The stock solutions were diluted 5× with 0.025% Tween 20 in H2O to obtain the highest test solution at 200 ppm. A lower test concentration of 50 ppm was prepared by making a 4× dilution from the 200 ppm solution with a diluent consisting 80 parts of 0.025% Tween 20 in H2O and 20 parts of acetone: methanol (1:1). A hand-held Devilbiss sprayer was used for spraying a solution to both sides of cabbage leaves until runoff. Reference plants (solvent check) were sprayed with the diluent only. Treated plants were held in a holding room for three days at approximately 23° C. and 40% RH prior to grading. Evaluation was conducted by counting the number of live aphids per plant under a microscope. Insecticidal activity was measured by using Abbott's correction formula: Corrected % Control=100*(X−Y)/X where • X=No. of live aphids on solvent check plants • Y=No. of live aphids on treated plants The Corrected % Control values from the above assays are given in Table 1.

For `CS(=O)(Cc1cnc(Cl)c(Cl)c1)=NC#N` (centres unmarked) [Compound 1, [(5,6-dichloropyridin-3-yl)methyl](methyl)-oxido λ^4-sulfanylidenecyanamide], in series [1], the pest or weed control at 50 ppm was 90 to 100% and the pest or weed control at 200 ppm lay within 90 to 100%. For the same compound, in series [2], the “GPA 50: % control at 50 ppm against green peach aphid in foliar spray tests” value (“GPA 50: % control at 50 ppm” below) is recorded as “G”.
For `CS(=O)(Cc1cnc(Cl)c(F)c1)=NC#N` (centres unmarked) [Compound 2, [(5-fluroro-6-chloropyridin-3-yl)methyl](methyl)-oxido-λ^4-sulfanylidenecyanamide], in series [1], the “CA 0.78: % Control at ppm against cotton aphid (foliar spray)” value (shortened to “CA 0.78: % Control at ppm”) is “A (90-100)”, the “CA 3.13: % Control at ppm against cotton aphid (foliar spray)” value (shortened to “CA 3.13: % Control at ppm”) is recorded as “A (90-100)”, the “CA 12.5: % Control at ppm against cotton aphid (foliar spray)” value (shortened to “CA 12.5: % Control at ppm”) was “A (90-100)” and the “CA 50: % Control at ppm against cotton aphid (foliar spray)” value (shortened to “CA 50: % Control at ppm”) is recorded as “A (90-100)”. In addition, in series [1], the pest or weed control at 50 ppm lay within 90 to 100% and the pest or weed control at 200 ppm is 90 to 100%. Also, in series [2], the “GPA 200: % control at 200 ppm against green peach aphid in foliar spray tests” value (“GPA 200: % control at 200 ppm” for short) is “B (80-89)” and the pest or weed control at 50 ppm is 50 to 59%.
For the compound `CC(c1cnc(Cl)c(F)c1)S(C)(=O)=NC#N` (centres unmarked) [Compound 3, [1-(5-fluoro-6-chloropyridin-3-yl)ethyl](methyl)-oxido-λ^4-sulfanylidenecyanamid], in series [1], the “CA 0.78: % Control at ppm” value is “A (90-100)”, the “CA 3.13: % Control at ppm” value is reported as “A (90-100)”, the “CA 12.5: % Control at ppm” value is listed as “A (90-100)” and the “CA 50: % Control at ppm” value is “A (90-100)”. Also, in series [1], the pest or weed control at 50 ppm lay in the range of 90 to 100% and the pest or weed control at 200 ppm fell in the range of 90 to 100%. In series [2], the “GPA 200: % control at 200 ppm” value is “A (90-100)” and the pest or weed control at 50 ppm was in the range of 80 to 89%.
With `CSc1ncc(C(C)S(C)(=O)=NC#N)cc1F` (centres unmarked) [Compound 4, [1-(5-fluoro-6-methylthioyridin-3-yl)ethyl]-(methyl)-oxido-λ^4-sulfanylidenecyanamide], in series [1], the pest or weed control at 50 ppm lay within 80 to 89% and the pest or weed control at 200 ppm is 90 to 100%. In addition, in series [2], the “GPA 50: % control at 50 ppm” value is “G” and the “GPA 200: % control at 200 ppm” value was “G”.
One may read the melting point as the temperature, or range, at which the solid turns liquid. `COc1cc(CS(C)(=O)=NC#N)cnc1Cl` (centres unmarked) [Compound 5, [(5-methoxy-6-chloropyridin-3-yl)methyl](methyl)-oxido-λ^4-sulfanylidenecyanamide] showed a melting point of 123 to 125 °C. In series [1], the pest or weed control at 50 ppm fell in the range of 70 to 79% and the pest or weed control at 200 ppm is 90 to 100%. Also, in series [2], the “GPA 50: % control at 50 ppm” value is on record as “G” and the “GPA 200: % control at 200 ppm” value is “G”.
As to `COc1cc(C(C)S(C)(=O)=NC#N)cnc1Cl` (centres unmarked) [Compound 6, [1-(5-methoxy-6-chloropyridin-3-yl)ethyl](methyl)-oxido-λ^4-sulfanylidenecyanamide], in series [1], the pest or weed control at 50 ppm was in the range of 60 to 69% and the pest or weed control at 200 ppm was in the range of 90 to 100%. In addition, in series [2], the “GPA 50: % control at 50 ppm” value is “G” and the “GPA 200: % control at 200 ppm” value was “G”.
For `CS(=O)(Cc1cnc(Cl)c(Br)c1)=NC#N` (centres unmarked) [Compound 7, [(5-bromo-6-chloropyridin-3-yl)methyl](methyl)-oxido-λ^4-sulfanylidenecyanamide], in series [1], the pest or weed control at 50 ppm lay within 90 to 100% and the pest or weed control at 200 ppm fell in the range of 90 to 100%. In series [2], the “GPA 50: % control at 50 ppm” value is “G” and the “GPA 200: % control at 200 ppm” value is listed as “G”.
With `CC(c1cnc(Cl)c(Br)c1)S(C)(=O)=NC#N` (centres unmarked) [Compound 8, [1-(5-bromo-6-chloropyridin-3-yl)ethyl](methyl)-oxido-λ^4-sulfanylidenecyanamide], in series [1], the “CA 0.78: % Control at ppm” value is recorded as “E (50-59)”, the “CA 3.13: % Control at ppm” value is “A (90-100)”, the “CA 12.5: % Control at ppm” value was “A (90-100)” and the “CA 50: % Control at ppm” value was “A (90-100)”. Moreover, in series [1], the pest or weed control at 50 ppm was 90 to 100% and the pest or weed control at 200 ppm fell in the range of 90 to 100%. Besides, in series [2], the “GPA 50: % control at 50 ppm” value is recorded as “G” and the “GPA 200: % control at 200 ppm” value is listed as “B (80-89)”.
Consider `CS(=O)(Cc1cnc(Cl)cc1Cl)=NC#N` (centres unmarked) [Compound 9, [(4,6-dichloropyridin-3-yl)methyl](methyl)-oxido λ^4-sulfanylidenecyanamide], for which, in series [1], the pest or weed control at 50 ppm lay within 90 to 100% and the pest or weed control at 200 ppm fell in the range of 90 to 100%. In addition, the “GPA 50: % control at 50 ppm” value in series [2] is reported as “G”.
